Drawing on a melting point compilation (Tetko et al.; mined from patent text by program, amines drawn as free bases though some values may be those of a salt), this text covers melting point for 63 compounds.

By melting point is commonly meant the temperature of the solid-liquid transition. With `CCN(CC)CCc1c(C)[nH]c(C=C2C(=O)[NH+]([O-])N=C2c2cnccn2)c1C` (stereo not drawn), the melting point was found to be 192 °C.

With `COc1cc(C2=Nc3ccc(N4CCOCC4)cc3C(=O)C2)ccc1O`, the melting point is 297 to 299 °C.

For `Clc1ccc2c(C=Cc3ccccc3)ccnc2c1`, the melting point was in the range of 120 to 122 °C.

The compound `COc1cc(-c2oc3ccccc3c(=O)c2C(=O)NCCCCN2CCN(c3ccccn3)CC2)cc(OC)c1OC` gave a melting point of 168 to 173 °C.

`COc1cc(-c2cc(=O)c3ccc(OCC(O)CNC(C)(C)C)cc3o2)cc(OC)c1OC` (stereo not drawn) had a melting point of 119 to 120 °C.

With `Cc1c(C)c2c(c(C)c1NC(=O)CC(C)(C)C)C(O)(c1ccccn1)C(C)(C)O2` (stereo not drawn), the melting point lay in the range of 205 to 207 °C.

Regarding `CC(C)(C)OC(=O)C1CCCN(CO)c2c1cc(OCc1ccccc1)c1ccccc21` (stereo not drawn), the melting point is 108 to 110 °C.

`SC12CC3CC(CC(C3)C1)C2` came in with a melting point of 101 to 103 °C.

As to `CCCn1c(=O)[nH]c2ccc(C(=O)c3nc(NS(C)(=O)=O)c4ccccn34)cc2c1=O`, the melting point is 334 °C.

Turning to `CC(=CC(=O)c1cccc(C(F)(F)F)c1)N(C)C`, the melting point lay within 69 to 70 °C.

Take `c1ccc(COc2ccc3c(ccn3Cc3ccncc3)c2)cc1`: the melting point fell in the range of 124 to 125 °C.

The compound `CN1C(=O)CN=C(c2ccccc2F)c2cc(NC(=O)N3CC3)ccc21` registered a melting point of 186 to 190 °C.

Compound `CCC(C)C(OCc1ccccc1)C1C(C(=O)NCC(=O)O)NC(C2CC2)C1[N+](=O)[O-]` (stereo not drawn) returned a melting point of 161 to 163 °C.

On to `COC(=O)CCc1ccc(N2CCCN(c3ccc(C#N)cc3)C2=O)cc1`, for which the melting point was in the range of 149 to 152 °C.

In turn, `CC(C)c1cc(C(=O)CON2C(=O)c3ccccc3C2=O)cc(C(C)C)c1O` showed a melting point of 136 to 139 °C.

The compound `Cc1cc(N2CCC(CC(=O)N3CCN(Cc4ccccc4)CC3)CC2)ccc1Oc1ccc(NS(=O)(=O)c2ccc(Cl)c(Cl)c2)cn1` returned a melting point of 151 to 155 °C.

With `c1ccc(Nc2nc(-c3ccncc3)nc3ccccc23)cc1`, the melting point was in the range of 270 to 274 °C.

In turn, `Cc1ccc(S(=O)(=O)N2[C@H](CCCO)CC[C@H]2c2ccc(F)cc2)cc1` came in with a melting point of 96 °C.

`CCOC(=O)c1cn(C2CC2)c2c(Cl)c(F)c(F)cc2c1=O` gave a melting point of 154 to 157 °C.

`Cc1ccc(-c2ccc(C(=O)Nc3ccc4cc(CN5CCCC5)cnc4c3)cn2)cc1` came in with a melting point of 226 to 228 °C.

With `Cc1onc(-c2ccccc2)c1-c1[nH]c2ccccc2c1CCCN(C)C`, the melting point fell in the range of 156 to 157 °C.

In turn, `Cc1cccc2c1N(CCN(C(C)C)C(C)C)C(=O)C2=O` registered a melting point of 92 to 93 °C.

`Cc1cc(C(C)C)cc(C)c1CCl` returned a melting point of 63 to 65 °C.

Compound `COc1ccc(N=C(C#CSc2ccccc2)N2CCN(C)CC2)cc1` yielded a melting point of 160 °C.

Compound `COCCOCOc1ccc2cc(C(=O)CNCc3cccc(-c4ccc(Nc5ccccc5C(=O)O)cc4)c3)ccc2c1` returned a melting point of 72 °C.

Compound `OC(CCN1CCC(c2ccc(F)cc2)CC1)c1ccc(Cl)cc1` (stereo not drawn) had a melting point of 108 to 110 °C.

Consider `Nc1ccc(N2C(=O)c3cccc([N+](=O)[O-])c3C2=O)cc1`, for which the melting point is 177 °C.

In the case of `CNN(NC)C(=O)Nc1cccc2c1C(=O)c1c-2n[nH]c1-c1cccs1`, the melting point is 279 °C.

For the compound `CCCCN1C(=O)C2C3CCC(O3)C2C1=O` (stereo not drawn), the melting point lay in the range of 82 to 83 °C.

Compound `CCCSc1ncc(CC(NC(=O)c2ccccc2)C(=O)O)n1Cc1ccccc1Cl` (stereo not drawn) gave a melting point of 210 to 212 °C.

The compound `Cc1cc2ncnn2nc1OCC(C)(C)CS(N)(=O)=O` registered a melting point of 216 to 218 °C.

Compound `CC(=Cc1c[nH]c2ccc3c(c12)CCCO3)[N+](=O)[O-]` yielded a melting point of 246 to 247 °C.

The compound `CSc1ccc(-c2cccc(-c3nc(C(C)C)[nH]c3-c3cccc(C)n3)c2)cc1` gave a melting point of 80 to 82 °C.

In the case of `COc1ncccc1Nc1c(NC(NC(=O)c2cccc(C)c2)C(C)(C)Cc2ccccc2)c(=O)c1=O` (stereo not drawn), the melting point was in the range of 233 to 235 °C.

On to `CCCCC(=NOCc1ccc(OCc2nc(-c3ccccc3)oc2C)cc1)C(=O)O`, for which the melting point lay in the range of 112 to 114 °C.

On to `COc1ccccc1N1CCN(CCCOC(=O)Cc2csc(NC(=O)c3ccc(F)cc3)n2)CC1`, for which the melting point was 100 °C.

`Nc1c(Br)cc(S(N)(=O)=O)cc1[N+](=O)[O-]` came in with a melting point of 216 to 218 °C.

`O=C(O)Cc1cccc(Oc2cccc(Cl)c2Cl)c1[N+](=O)[O-]`: the melting point is 178 to 183 °C.

In the case of `CNc1nc(Br)cn2c(Br)cnc12`, the melting point was determined as 229 °C.

Turning to `OCCN(c1ccccc1)c1ccccc1`, the melting point is 109 to 110 °C.

In turn, `O=C(C(c1ccccc1)n1cnc2[nH]ncc2c1=S)N1CCC(C2C=C(O)C=CN2)CC1` (stereo not drawn) gave a melting point of 138 to 142 °C.

With `CC(=O)c1cc2c(c(Br)c1O)CCCC2`, the melting point was in the range of 127 to 130 °C.

For the compound `c1ccc(CC2CNCCN2)cc1` (racemic), the melting point lay in the range of 80 to 81 °C.

For `Cc1nnc(-c2ccc3occ(-c4ccc(C=O)c(F)c4)c3c2)o1`, the melting point is 207 to 208 °C.

In the case of `CCC1(CC)OC(=O)Nc2ccc(/C(=C/C#N)C(C)C)cc21`, the melting point lay in the range of 138 to 140 °C.

`COc1ccc2[nH]c3cnc4c(c3c2c1)C(=O)CC(C)(C)C4` yielded a melting point of 230 to 231 °C.

`O=C(CCCCCCOc1ccc(O)cc1)C(F)(F)F` gave a melting point of 61 to 62 °C.

Take `O=C(O)c1nc2cc(N3CCOCC3)c([N+](=O)[O-])cc2[nH]c1=O`: the melting point is 214 °C.

`O=C1c2[nH]c3cc(-c4ccccc4)nn3c(=O)c2CCN1C1CCCCC1` registered a melting point greater than 320 °C.

`CC1(CCC#N)N=C(c2ccc(Cl)cc2)OC1=O` (stereo not drawn) came in with a melting point of 97 to 98 °C.

Regarding `CCn1c(=O)c2c(nc(/C=C/c3cc(OC)c(OC(C)=O)c(OC)c3)n2C)n(CC)c1=O`, the melting point was 248 to 249 °C.

For the compound `N#CC1(NC(=O)c2ccccc2C(=O)O)CCCCC1`, the melting point fell in the range of 154 to 156 °C.

As for `CCOC(=O)CN(C(=O)C(=O)N(CC(=O)OCC)S(=O)(=O)C(F)(F)F)S(=O)(=O)C(F)(F)F`, the melting point lay in the range of 88 to 90 °C.

Compound `CN(C)C(=N[N+](=O)[O-])N(C#N)Cc1cnc(Cl)s1` came in with a melting point of 152 to 155 °C.

Compound `Nc1cc2c(cc1[N+](=O)[O-])CCC2` showed a melting point of 131 to 132 °C.

Regarding `CS(=O)(=O)CCCn1cc(C(Cc2ccccc2Br)=NO)c2ccc(Cl)c(Cl)c21`, the melting point fell in the range of 191 to 194 °C.

In the case of `CON=C(C(=O)O)c1nc(NC=O)ccc1Cl`, the melting point lay in the range of 151 to 154 °C.

Turning to `CNC(=O)c1cn(C)c2cc(Cl)ccc2c1=O`, the melting point was 260 to 263 °C.

`CC(C)(C)OC(=O)N1CCCC(c2nc3c(N[C@H]4[C@@H](C(N)=O)[C@@H]5C=C[C@H]4C5)ccnc3[nH]2)C1` (stereo partly drawn) came in with a melting point of 222 to 225 °C.

`CN(O)C(=O)Nc1cccc(NC(=O)N(C)O)c1` had a melting point of 146 to 147 °C.

For `COCc1c[nH]c(-c2ccc(O)cc2)n1`, the melting point fell in the range of 191 to 192 °C.

In turn, `O=S(=O)(CCl)c1ccc(O)c(Cl)c1` showed a melting point of 108 °C.

Turning to `CC(CO)N1CCN(c2cccc3c2OCCO3)CC1` (stereo not drawn), the melting point lay within 91 to 92 °C.
